The assay addresses ASK1 (Homo sapiens (Human), UniProt Q99683). In words: HTRF KinEASE Assay (TR-FRET), inhibition of ASK1. The following applies: 5 nM ASK1 kinase, 1 uM STK3 peptide substrate, 100 uM ATP, 3 hours. In kind it is biochemical. From the text:
Assays HTRF® KinEASE™ Assay ASK1 was purchased from Thermofisher (Catalogue # PV4011), ATP was purchased from Sigma (Catalogue # A7699), HTRF® KinEASE™ Assay System was obtained from Cisbio (Bedford, Mass.). ½ Area plate was purchased from Perkin Elmer (Catalogue # #6005560). HTRF® KinEASE™-STK is a generic method for measuring serine/threonine kinase activities using a time-resolved fluorescence resonance energy transfer (TR-FRET) immunoassay. […] The STK3-antibody labeled with Eu^3+-Cryptate and 125 nM streptavidin-XL665 are mixed in a single addition with stop reagents provided by the Cisbio kit used to stop the kinase reaction. Fluorescence is detected using an Envision Multilabeled 2014 reader from PerkinElmer. The Fluorescence is measured at 615 nm (Cryptate) and 665 nm (XL665) and a ratio of 665 nm/615 nm is calculated for each well. The resulting TR-FRET is proportional to the phosphorylation level. Staurosporine was used as the positive control. IC50 was determined by XLfit 5.3.

Our source for the IC50 values is patent US10253018B2, “Apoptosis signal-regulating kinase 1 inhibitors and methods of use thereof” (ENANTA PHARMACEUTICALS, INC., priority 2017, dated 2019).

Where only a bound is given, the exact number is not on record here.

Chain of ASK1 (Q99683 whole entry): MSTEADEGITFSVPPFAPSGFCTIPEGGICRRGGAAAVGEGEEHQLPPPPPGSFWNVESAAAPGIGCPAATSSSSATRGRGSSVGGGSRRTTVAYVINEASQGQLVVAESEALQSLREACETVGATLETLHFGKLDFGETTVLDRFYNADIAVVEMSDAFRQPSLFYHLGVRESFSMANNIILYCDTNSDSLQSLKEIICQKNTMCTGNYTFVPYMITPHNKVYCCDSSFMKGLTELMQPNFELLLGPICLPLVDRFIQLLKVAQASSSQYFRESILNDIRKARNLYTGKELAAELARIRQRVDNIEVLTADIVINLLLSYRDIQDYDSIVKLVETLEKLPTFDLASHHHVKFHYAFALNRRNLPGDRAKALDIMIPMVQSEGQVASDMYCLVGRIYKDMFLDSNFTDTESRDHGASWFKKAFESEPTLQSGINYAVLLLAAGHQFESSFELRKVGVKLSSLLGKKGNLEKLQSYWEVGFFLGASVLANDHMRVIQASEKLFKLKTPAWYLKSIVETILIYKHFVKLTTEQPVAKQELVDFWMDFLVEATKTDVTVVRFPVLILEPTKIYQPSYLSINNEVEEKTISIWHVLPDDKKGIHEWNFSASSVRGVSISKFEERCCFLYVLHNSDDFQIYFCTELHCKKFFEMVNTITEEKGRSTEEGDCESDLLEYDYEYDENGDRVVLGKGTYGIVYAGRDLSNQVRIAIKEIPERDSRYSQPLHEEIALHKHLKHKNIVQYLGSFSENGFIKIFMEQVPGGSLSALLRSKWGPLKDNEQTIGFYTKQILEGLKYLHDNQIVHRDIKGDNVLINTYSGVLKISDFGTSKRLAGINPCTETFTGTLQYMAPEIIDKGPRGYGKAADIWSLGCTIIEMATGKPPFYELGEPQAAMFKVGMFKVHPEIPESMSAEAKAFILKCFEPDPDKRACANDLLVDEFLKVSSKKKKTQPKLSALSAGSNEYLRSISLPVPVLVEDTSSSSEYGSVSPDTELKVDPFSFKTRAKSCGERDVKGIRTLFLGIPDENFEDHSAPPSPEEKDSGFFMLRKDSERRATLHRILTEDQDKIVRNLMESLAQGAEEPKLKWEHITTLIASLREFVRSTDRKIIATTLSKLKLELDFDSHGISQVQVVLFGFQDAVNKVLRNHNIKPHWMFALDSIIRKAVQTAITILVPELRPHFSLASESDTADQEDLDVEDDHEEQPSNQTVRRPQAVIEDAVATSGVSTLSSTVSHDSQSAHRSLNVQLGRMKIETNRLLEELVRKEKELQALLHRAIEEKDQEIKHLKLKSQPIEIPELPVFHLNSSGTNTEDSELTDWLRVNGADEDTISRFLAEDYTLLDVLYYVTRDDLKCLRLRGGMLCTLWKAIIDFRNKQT

The molecule `CC(C)n1cnnc1-c1cccc(NC(=O)c2ccc3nccnc3c2)n1` [Example 1] registered an IC50 of 100 to 1000 nM.

`COc1nc2ccc(C(=O)Nc3cccc(-c4nncn4C(C)C)n3)cc2nc1N1CCOCC1` [Example 2] registered a half-maximal inhibitory concentration (IC50) of 100 to 1000 nM.

`COc1nc2cc(F)c(C(=O)Nc3cccc(-c4nncn4C(C)C)n3)cc2nc1N1CCCCC1` [Example 3] had an IC50 of 10 to 100 nM.

For the molecule `CC(C)Nc1nc2cc(C(=O)Nc3cccc(-c4nncn4C(C)C)n3)ccc2nc1OC(C)C` [Example 4], the IC50 was in the range of 10 to 100 nM.

Take `COc1nc2ccc(C(=O)Nc3cccc(-c4nncn4C(C)C)n3)cc2nc1N1CCCCC1` [Example 5]: the IC50 is 100 to 1000 nM.

`CC(C)Oc1nc2ccc(C(=O)Nc3cccc(-c4nncn4C(C)C)n3)cc2nc1N1CCCCC1` [Example 6] gave a half-inhibitory concentration (IC50) of over 1000 nM.

The molecule `CC(C)Oc1nc2ccc(C(=O)Nc3cccc(-c4nncn4C(C)C)n3)cc2nc1N1CCOCC1` [Example 7] had an IC50 of 100 to 1000 nM.

For the molecule `COc1nc2ccc(C(=O)Nc3cccc(-c4nncn4C(C)C)n3)cc2nc1NC(C)C` [Example 8], the IC50 was in the range of 100 to 1000 nM.

Regarding `CC(C)Oc1nc2cc(F)c(C(=O)Nc3cccc(-c4nnnn4C(C)C)n3)cc2nc1N(C)C(C)C` [Example 9], the IC50 was over 1000 nM.

Take `CC(C)Oc1nc2cc(F)c(C(=O)Nc3cccc(-c4nnnn4C(C)C)n3)cc2nc1OC(C)C` [Example 10]: the IC50 was over 1000 nM.

`CC(C)Oc1nc2cc(F)c(C(=O)Nc3cccc(-c4nncn4C(C)C)n3)cc2nc1OC(C)C` [Example 11] came in with an IC50 of 100 to 1000 nM.

Take `CC(C)CN(C)c1nc2cc(C(=O)Nc3cccc(-c4nnnn4C(C)C)n3)c(F)cc2nc1OC(C)C` [Example 12]: the concentration for half-maximal inhibition (IC50) is over 1000 nM.

For `CC(C)CN(C)c1nc2cc(C(=O)Nc3cccc(-c4nncn4C(C)C)n3)c(F)cc2nc1OC(C)C` [Example 13], the IC50 is 100 to 1000 nM.

In the case of `CC(C)Nc1nc2cc(C(=O)Nc3cccc(-c4nnnn4C(C)C)n3)c(F)cc2nc1OC(C)C` [Example 14], the 50% inhibitory concentration (IC50) was over 1000 nM.

`CC(C)Nc1nc2cc(C(=O)Nc3cccc(-c4nncn4C(C)C)n3)c(F)cc2nc1OC(C)C` [Example 15] came in with a concentration for half-maximal inhibition (IC50) of 10 to 100 nM.

`COc1nc2cc(F)c(C(=O)Nc3cccc(-c4nnnn4C(C)C)n3)cc2nc1N1CCCCC1` [Example 16] returned an IC50 of 100 to 1000 nM.

Take `CC(C)Nc1nc2cc(C(=O)Nc3cccc(-c4nnnn4[C@@H](C)CO)n3)c(F)cc2nc1OC(C)C` [Example 17]: the 50% inhibitory concentration (IC50) was over 1000 nM.

As to `CC(C)n1cnnc1-c1cccc(NC(=O)c2cc3ccccc3cn2)n1` [Example 18], the half-maximal inhibitory concentration (IC50) fell in the range of 1 to 10 nM.

Molecule `CC(C)n1cnnc1-c1cccc(NC(=O)c2cc3cc(Br)ccc3cn2)n1` [Example 19, 6-bromo-N-(6-(4-isopropyl-4H-1,2,4-triazol-3-yl)pyridin-2-yl)isoquinoline-3-carboxamide] displayed an IC50 of 1 to 10 nM.

The molecule `CC(C)n1nnnc1-c1cccc(NC(=O)c2cc3cc(Br)ccc3cn2)n1` [Example 20] returned an IC50 of over 1000 nM.

`CC(C)n1cnnc1-c1cccc(NC(=O)c2cc3cc(N4CCCCC4)ccc3cn2)n1` [Example 21]: the concentration for half-maximal inhibition (IC50) lay in the range of 1 to 10 nM.

Turning to `CC(C)n1cnnc1-c1cccc(NC(=O)c2cc3cc(-n4cnc(C5CC5)c4)ccc3cn2)n1` [Example 22], the half-maximal inhibitory concentration (IC50) was in the range of 1 to 10 nM.

The molecule `CCn1nccc1-c1ccc2cnc(C(=O)Nc3cccc(-c4nncn4C(C)C)n3)cc2c1` [Example 23] returned a half-inhibitory concentration (IC50) of 10 to 100 nM.

Turning to `CC(C)n1cnnc1-c1cccc(NC(=O)c2ccc3ccc(N4CCOCC4)nc3c2)n1` [Example 24], the IC50 is 100 to 1000 nM.

On to `CC(C)n1cnnc1-c1cccc(NC(=O)c2ccc3ccc(N(C)C)nc3c2)n1` [Example 25], for which the IC50 is over 1000 nM.

As for `CC(C)n1cnnc1-c1cccc(NC(=O)c2ccc3ccc(N4CCCCC4)nc3c2)n1` [Example 26], the 50% inhibitory concentration (IC50) is 10 to 100 nM.

For `CC(C)n1cnnc1-c1cccc(NC(=O)c2ccc3ccc(N4CCN(C(C)(C)C)CC4)nc3c2)n1` [Example 27], the 50% inhibitory concentration (IC50) was over 1000 nM.

In the case of `CC(C)n1cnnc1-c1cccc(NC(=O)c2ccc3ccc(NC4CCCCC4)nc3c2)n1` [Example 28], the half-inhibitory concentration (IC50) is over 1000 nM.

Consider `CC(C)n1cnnc1-c1cccc(NC(=O)c2ccc3ccc(N4CC5(COC5)C4)nc3c2)n1` [Example 29], for which the IC50 was over 1000 nM.

In turn, `CC(C)n1cnnc1-c1cccc(NC(=O)c2ccc3ccc(N4CC5CCC(C4)O5)nc3c2)n1` [Example 30] registered an IC50 of 100 to 1000 nM.

`CCN(Cc1ccccc1)c1ccc2ccc(C(=O)Nc3cccc(-c4nncn4C(C)C)n3)cc2n1` [Example 31] returned an IC50 of over 1000 nM.

`COCCNc1ccc2ccc(C(=O)Nc3cccc(-c4nncn4C(C)C)n3)cc2n1` [Example 33] registered a half-inhibitory concentration (IC50) of 10 to 100 nM.

In the case of `CC(C)n1cnnc1-c1cccc(NC(=O)c2ccc3ccc(Cl)nc3c2)n1` [Example 34], the half-inhibitory concentration (IC50) fell in the range of 100 to 1000 nM.

Consider `CC(C)n1cnnc1-c1cccc(NC(=O)c2ccc3cccnc3c2)n1` [Example 35], for which the IC50 was over 1000 nM.

Turning to `CC(C)n1cnnc1-c1cccc(NC(=O)c2ccc3cc(Br)cnc3c2)n1` [Example 36], the IC50 was 100 to 1000 nM.

As to `CC(C)n1cnnc1-c1cccc(NC(=O)c2ccc3cc(-c4ccc(C(C)(C)C)cc4)cnc3c2)n1` [Example 37], the IC50 is over 1000 nM.

Molecule `CC(C)n1cnnc1-c1cccc(NC(=O)c2ccc3cc(N4CCOCC4)cnc3c2)n1` [Example 38] gave an IC50 of 10 to 100 nM.

`CC(C)n1cnnc1-c1cccc(NC(=O)c2ccc3ccccc3c2)n1` [Example 39] showed a concentration for half-maximal inhibition (IC50) of 100 to 1000 nM.

For the molecule `CC(C)n1cnnc1-c1cccc(NC(=O)c2cc3ccccc3cc2F)n1` [Example 40], the IC50 lay in the range of 100 to 1000 nM.

`CC(C)n1nnnc1-c1cccc(NC(=O)c2cc3ccccc3cc2F)n1` [Example 41] gave an IC50 of over 1000 nM.
